≈ marks a conversion by molar mass, not a printed value. Read-outs that look alike come from different tables or passages of the source.
What was measured:
[1] = system: Septoria tritici (St); assay: Growth inhibition assay of fungal pathogens, St; assay type: cell-based; details: Zymoseptoria tritici, 48 h, growth inhibition at 48 hours vs 2% DMSO control
Outline: (§1)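 Spores from sub-cultured plates were diluted in 17% V8 liquid medium and exposed to compound from DMSO stocks at final concentrations of 50, 10 and 2 ppm or 2, 0.4 and 0.08 ppm. OD600 and visual ratings at 48 h were compared with the 2% DMSO control to give percent growth inhibition.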

[2] = system: Diplodia maydis (Dm); assay: Growth inhibition assay of fungal pathogens, Dm; assay type: cell-based; details: Stenocarpella maydis, 48 h, growth inhibition at 48 hours vs 2% DMSO control
Outline: as §1

[3] = system: C. krusei; assay: Antifungal Activity Assay (broth microtiter MIC), C. krusei; assay type: cell-based, Candida krusei; details: Pichia kudriavzevii, ATCC6258, 48 h
Outline: (§2)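 Susceptibility was determined by CLSI M27-A3 broth microdilution in RPMI 1640 buffered with MOPS. Growth inhibition was scored visually after 48 h.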

[4] = system: Botrtyis cinerea (Bc); assay: Growth inhibition assay of fungal pathogens, Bc; assay type: cell-based; details: growth inhibition at 48 hours vs 2% DMSO control; for IC90: 48 h
Outline: as §1

[5] = system: C. albicans; assay: Antifungal Activity Assay (broth microtiter MIC), C. albicans; assay type: cell-based, Candida albicans; details: Candida albicans, ATCC90028, 48 h
Outline: as §2

[6] = system: Collectotrichum graminicola (Cg); assay: Growth inhibition assay of fungal pathogens, Cg; assay type: cell-based; details: growth inhibition at 48 hours vs 2% DMSO control; for IC90: 48 h
Outline: as §1

[7] = system: Phytophthora capsici (Pc); assay: Growth inhibition assay of fungal pathogens, Pc; assay type: cell-based; details: 48 h
Outline: as §1

[8] = system: Rhizoctonia solani (Rs); assay: Growth inhibition assay of fungal pathogens, Rs; assay type: cell-based; details: 48 h
[9] = system: Fusarium moniliforme (Fm); assay: Growth inhibition assay of fungal pathogens, Fm; assay type: cell-based; details: for IC90: Fusarium verticillioides, 48 h, read-out: Concentration at 90% Inhibition Fm
Outline: as §1

[10] = system: Fusarium virguliforme (Fv); assay: Growth inhibition assay of fungal pathogens, Fv; assay type: cell-based; details: for IC90: 48 h
Outline: as §1

[11] = system: C. parapsilosis; assay: Antifungal Activity Assay (broth microtiter MIC), C. parapsilosis; assay type: cell-based, Candida parapsilosis; details: Lodderomyces parapsilosis, ATCC22019, 48 h
Outline: as §2

[12] = target: fungal (fACC2) (UniProt Q00955); details: read-out: fACC2 (in vitro ACC2 Inhibition Assay, IC50); Table 2b, additional results; ADP-Glo, 5 nM ACC2, 20 μM ATP, 20 μM acetyl-CoA
Chain of fungal (fACC2) (Q00955 whole entry): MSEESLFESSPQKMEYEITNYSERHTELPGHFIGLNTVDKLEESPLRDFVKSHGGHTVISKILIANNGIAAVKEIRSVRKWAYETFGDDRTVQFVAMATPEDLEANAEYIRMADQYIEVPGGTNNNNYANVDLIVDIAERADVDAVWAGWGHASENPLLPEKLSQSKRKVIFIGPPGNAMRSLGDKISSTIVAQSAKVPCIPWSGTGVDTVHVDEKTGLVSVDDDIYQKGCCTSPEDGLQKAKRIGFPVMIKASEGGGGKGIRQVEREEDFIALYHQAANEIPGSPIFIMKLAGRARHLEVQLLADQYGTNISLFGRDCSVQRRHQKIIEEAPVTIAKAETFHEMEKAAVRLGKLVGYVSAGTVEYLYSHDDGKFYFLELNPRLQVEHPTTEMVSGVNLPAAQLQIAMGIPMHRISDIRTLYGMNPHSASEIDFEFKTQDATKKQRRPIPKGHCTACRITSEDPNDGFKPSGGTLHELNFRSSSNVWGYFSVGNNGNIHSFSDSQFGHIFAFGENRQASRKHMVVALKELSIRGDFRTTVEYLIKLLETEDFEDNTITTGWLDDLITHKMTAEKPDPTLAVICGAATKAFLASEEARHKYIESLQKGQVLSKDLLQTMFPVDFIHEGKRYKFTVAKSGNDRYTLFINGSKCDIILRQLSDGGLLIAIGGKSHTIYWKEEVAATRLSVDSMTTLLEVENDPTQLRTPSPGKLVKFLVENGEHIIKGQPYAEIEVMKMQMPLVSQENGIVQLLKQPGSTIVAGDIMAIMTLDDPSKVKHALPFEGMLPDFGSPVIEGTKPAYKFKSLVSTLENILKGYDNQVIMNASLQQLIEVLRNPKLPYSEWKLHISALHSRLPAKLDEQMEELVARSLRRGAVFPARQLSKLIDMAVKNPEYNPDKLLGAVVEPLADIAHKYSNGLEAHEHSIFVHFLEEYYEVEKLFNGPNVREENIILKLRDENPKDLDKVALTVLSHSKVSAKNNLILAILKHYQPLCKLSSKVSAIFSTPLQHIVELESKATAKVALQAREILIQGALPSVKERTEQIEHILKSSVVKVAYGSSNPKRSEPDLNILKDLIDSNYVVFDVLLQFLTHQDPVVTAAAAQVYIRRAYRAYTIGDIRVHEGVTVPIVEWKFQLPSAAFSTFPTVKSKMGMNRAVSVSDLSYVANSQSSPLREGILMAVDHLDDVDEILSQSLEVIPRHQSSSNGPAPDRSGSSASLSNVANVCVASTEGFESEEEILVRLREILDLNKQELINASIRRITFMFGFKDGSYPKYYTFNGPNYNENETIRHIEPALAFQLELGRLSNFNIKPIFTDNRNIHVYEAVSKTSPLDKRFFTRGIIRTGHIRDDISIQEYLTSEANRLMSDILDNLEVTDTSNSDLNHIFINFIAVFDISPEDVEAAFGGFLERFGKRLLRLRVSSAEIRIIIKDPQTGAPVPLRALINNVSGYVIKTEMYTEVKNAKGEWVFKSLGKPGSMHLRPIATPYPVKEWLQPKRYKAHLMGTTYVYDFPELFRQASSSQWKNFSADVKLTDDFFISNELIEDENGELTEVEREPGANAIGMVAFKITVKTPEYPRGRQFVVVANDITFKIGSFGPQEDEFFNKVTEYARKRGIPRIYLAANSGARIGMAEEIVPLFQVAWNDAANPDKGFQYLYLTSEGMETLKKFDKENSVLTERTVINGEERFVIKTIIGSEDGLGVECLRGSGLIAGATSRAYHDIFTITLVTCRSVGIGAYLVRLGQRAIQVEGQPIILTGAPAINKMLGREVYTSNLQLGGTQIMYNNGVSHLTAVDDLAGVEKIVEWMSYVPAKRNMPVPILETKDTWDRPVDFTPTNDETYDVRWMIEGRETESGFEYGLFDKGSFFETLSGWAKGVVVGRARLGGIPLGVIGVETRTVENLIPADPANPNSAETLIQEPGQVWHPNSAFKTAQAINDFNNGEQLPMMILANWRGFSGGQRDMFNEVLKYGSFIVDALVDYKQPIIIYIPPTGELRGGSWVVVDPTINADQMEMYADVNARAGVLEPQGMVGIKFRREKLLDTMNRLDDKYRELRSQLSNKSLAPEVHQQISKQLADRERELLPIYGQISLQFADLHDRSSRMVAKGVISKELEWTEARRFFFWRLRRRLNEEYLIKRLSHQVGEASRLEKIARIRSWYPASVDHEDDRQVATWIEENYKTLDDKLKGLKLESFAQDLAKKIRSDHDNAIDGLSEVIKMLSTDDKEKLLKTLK

[13] = target: human (hACC2) (Homo sapiens, UniProt O00763); assay: In vitro ACC inhibition assay (ADP-Glo), hACC2; assay type: biochemical; details: Table 2b, additional results, 5 nM ACC2, 20 μM ATP, 20 μM acetyl-CoA
Chain of human (hACC2) (O00763 whole entry): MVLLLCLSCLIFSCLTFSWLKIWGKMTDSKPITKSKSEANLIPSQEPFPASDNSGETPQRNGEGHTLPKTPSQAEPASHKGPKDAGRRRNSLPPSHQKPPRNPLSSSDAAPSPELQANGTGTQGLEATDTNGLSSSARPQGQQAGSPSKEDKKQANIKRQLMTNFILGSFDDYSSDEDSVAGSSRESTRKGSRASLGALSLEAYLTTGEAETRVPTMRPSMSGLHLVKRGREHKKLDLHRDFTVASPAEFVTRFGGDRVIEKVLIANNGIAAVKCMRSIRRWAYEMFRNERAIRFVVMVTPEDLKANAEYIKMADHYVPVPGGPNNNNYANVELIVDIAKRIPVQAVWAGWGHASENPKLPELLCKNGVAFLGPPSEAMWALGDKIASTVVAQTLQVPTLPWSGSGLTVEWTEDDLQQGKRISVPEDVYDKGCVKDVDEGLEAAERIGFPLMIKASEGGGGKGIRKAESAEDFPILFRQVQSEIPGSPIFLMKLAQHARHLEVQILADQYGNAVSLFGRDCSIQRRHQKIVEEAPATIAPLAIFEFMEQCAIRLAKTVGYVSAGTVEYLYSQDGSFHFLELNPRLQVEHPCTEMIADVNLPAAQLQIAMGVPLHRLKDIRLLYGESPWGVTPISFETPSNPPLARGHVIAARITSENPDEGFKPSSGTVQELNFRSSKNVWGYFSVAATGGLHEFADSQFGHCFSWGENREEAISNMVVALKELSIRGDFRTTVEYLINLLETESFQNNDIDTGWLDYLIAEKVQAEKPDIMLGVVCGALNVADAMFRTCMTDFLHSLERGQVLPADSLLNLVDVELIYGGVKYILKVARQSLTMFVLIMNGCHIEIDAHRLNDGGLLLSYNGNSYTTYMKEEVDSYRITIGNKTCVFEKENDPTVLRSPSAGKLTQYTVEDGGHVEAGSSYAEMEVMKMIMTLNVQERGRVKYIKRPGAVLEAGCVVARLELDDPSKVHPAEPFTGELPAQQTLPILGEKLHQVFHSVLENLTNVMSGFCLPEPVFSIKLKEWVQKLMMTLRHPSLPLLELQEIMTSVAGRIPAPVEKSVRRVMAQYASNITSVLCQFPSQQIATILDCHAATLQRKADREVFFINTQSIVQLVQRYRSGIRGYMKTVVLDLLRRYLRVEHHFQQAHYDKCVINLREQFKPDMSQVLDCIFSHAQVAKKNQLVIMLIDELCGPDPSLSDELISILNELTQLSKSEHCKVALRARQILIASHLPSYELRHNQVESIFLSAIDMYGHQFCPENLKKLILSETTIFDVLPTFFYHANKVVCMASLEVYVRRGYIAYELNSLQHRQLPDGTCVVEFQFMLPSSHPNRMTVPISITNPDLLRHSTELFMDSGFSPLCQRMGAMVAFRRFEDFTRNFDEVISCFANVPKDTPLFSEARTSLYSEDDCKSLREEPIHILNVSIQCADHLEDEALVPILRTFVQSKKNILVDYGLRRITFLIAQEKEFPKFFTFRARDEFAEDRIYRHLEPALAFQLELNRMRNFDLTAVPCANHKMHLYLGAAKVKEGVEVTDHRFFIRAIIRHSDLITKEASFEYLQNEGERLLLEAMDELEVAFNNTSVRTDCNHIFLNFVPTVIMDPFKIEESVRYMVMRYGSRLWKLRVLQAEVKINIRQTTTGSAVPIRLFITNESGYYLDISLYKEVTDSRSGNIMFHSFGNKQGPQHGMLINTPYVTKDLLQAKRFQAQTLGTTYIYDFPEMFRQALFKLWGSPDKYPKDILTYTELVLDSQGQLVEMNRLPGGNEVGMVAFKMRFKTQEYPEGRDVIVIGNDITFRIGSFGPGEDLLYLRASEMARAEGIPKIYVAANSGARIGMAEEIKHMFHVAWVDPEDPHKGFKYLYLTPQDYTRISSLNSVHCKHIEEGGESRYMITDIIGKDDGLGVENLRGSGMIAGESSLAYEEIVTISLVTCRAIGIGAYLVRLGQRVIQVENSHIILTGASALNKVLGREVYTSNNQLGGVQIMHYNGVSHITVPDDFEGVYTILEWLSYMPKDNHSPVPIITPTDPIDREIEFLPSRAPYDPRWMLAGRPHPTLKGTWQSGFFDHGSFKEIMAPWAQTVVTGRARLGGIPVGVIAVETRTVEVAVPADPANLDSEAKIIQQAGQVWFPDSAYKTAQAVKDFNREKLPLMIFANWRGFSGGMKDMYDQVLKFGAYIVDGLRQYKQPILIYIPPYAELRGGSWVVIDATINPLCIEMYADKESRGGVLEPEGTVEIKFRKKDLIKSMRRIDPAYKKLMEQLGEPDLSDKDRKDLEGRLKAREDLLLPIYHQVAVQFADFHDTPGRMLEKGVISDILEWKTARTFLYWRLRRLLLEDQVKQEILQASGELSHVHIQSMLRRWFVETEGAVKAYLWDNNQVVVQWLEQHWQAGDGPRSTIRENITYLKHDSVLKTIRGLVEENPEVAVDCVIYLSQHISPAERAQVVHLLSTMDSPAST
Procedure: The detailed procedure is as follows. […] 10 μL ADP glo reagent was added. […] 20 μL kinase detection reagent was added.

[14] = read-out: Concentration at 90% Inhibition St, Septoria tritici
[15] = read-out: Concentration at 90% Inhibition Dm, Diplodia maydis
[16] = read-out: MIC, C. krusei ATCC 6258, Table 3b (additional results), 3 replicates, MIC recorded at 48 h
[17] = read-out: Concentration at 90% Inhibition Bc, Botrtyis cinerea
[18] = read-out: MIC, C. albicans ATCC 90028, Table 3b (additional results), 3 replicates, MIC recorded at 48 h
[19] = read-out: Concentration at 90% Inhibition Cg, Collectotrichum graminicola
[20] = read-out: Concentration at 90% Inhibition Pc, Phytophthora capsici, growth inhibition at 48 hours vs 2% DMSO control
[21] = read-out: Concentration at 90% Inhibition Rs, Rhizoctonia solani, mycelial plugs, growth inhibition at 48 hours vs 2% DMSO control
[22] = read-out: Concentration at 90% Inhibition Fv, Fusarium virguliforme, growth inhibition at 48 hours vs 2% DMSO control
[23] = read-out: MIC, C. parapsilosis ATCC 22019, Table 3b (additional results), 3 replicates, MIC recorded at 48 h
[24] = Septoria tritici, read-out: Concentration at 90% Inhibition St
[25] = Diplodia maydis, read-out: Concentration at 90% Inhibition Dm
[26] = Table 3b (additional results), ATCC 6258, 3 replicates, MIC recorded at 48 h, read-out: MIC, C. krusei ATCC 6258
[27] = Botrtyis cinerea, read-out: Concentration at 90% Inhibition Bc
[28] = Table 3b (additional results), ATCC 90028, 3 replicates, MIC recorded at 48 h, read-out: MIC, C. albicans ATCC 90028
[29] = Collectotrichum graminicola, read-out: Concentration at 90% Inhibition Cg
[30] = growth inhibition at 48 hours vs 2% DMSO control, read-out: Concentration at 90% Inhibition Pc
[31] = mycelial plugs, growth inhibition at 48 hours vs 2% DMSO control, read-out: Concentration at 90% Inhibition Rs
[32] = Fusarium moniliforme, growth inhibition at 48 hours vs 2% DMSO control
[33] = growth inhibition at 48 hours vs 2% DMSO control, read-out: Concentration at 90% Inhibition Fv
[34] = Table 3b (additional results), ATCC 22019, 3 replicates, MIC recorded at 48 h, read-out: MIC, C. parapsilosis ATCC 22019

| SMILES | IC50 [12] | IC50 [13] | IC90 [1, 24] | IC90 [2, 25] | MIC [3, 26] | IC90 [4, 27] | MIC [5, 28] | IC90 [6, 29] | IC90 [7, 30] | IC90 [8, 31] | IC90 [9, 32] | IC90 [10, 33] | MIC [11, 34] | further results |
| --- | --- | --- | --- | --- | --- | --- | --- | --- | --- | --- | --- | --- | --- | --- |
| COc1ccccc1[C@@H](O)Cn1c(=O)n(C(C)(C)C(=O)NC(C)C)c(=O)c2c(C)c(-n3nccn3)sc21 [Compound I-256] | 1 to 5 nM | 5 to 10 nM | – | – | – | – | – | – | – | – | – | – | – | IC90 [1, 14]: > 50 µg/mL; IC90 [2, 15]: 2 µg/mL (≈ 3.8 µM); MIC [3, 16]: 0.25 to 1 µg/mL (≈ 0.475 to 1.9 µM); IC90 [4, 17]: 0.4 µg/mL (≈ 0.76 µM); MIC [5, 18]: 1.01 to 2 µg/mL (≈ 1.92 to 3.8 µM); IC90 [6, 19]: 2 µg/mL (≈ 3.8 µM); IC90 [7, 20]: 10 µg/mL (≈ 19 µM); IC90 [8, 21]: 0.08 µg/mL (≈ 0.152 µM); IC90 [9]: 0.08 µg/mL (≈ 0.152 µM); IC90 [10, 22]: 0.08 µg/mL (≈ 0.152 µM); MIC [11, 23]: 0.25 to 1 µg/mL (≈ 0.475 to 1.9 µM) |
| CCNC(=O)C(C)(C)n1c(=O)c2c(C)c(-n3nccn3)sc2n(C[C@H](OC(C)=O)c2cc(F)ccc2OC)c1=O [Compound I-257] | 5 to 10 nM | > 40 nM | > 50 µg/mL | > 50 µg/mL | 1.01 to 2 µg/mL (≈ 1.76 to 3.49 µM) | > 50 µg/mL | 2.01 to 4 µg/mL (≈ 3.51 to 6.99 µM) | > 50 µg/mL | > 50 µg/mL | > 50 µg/mL | 10 µg/mL (≈ 17.5 µM) | > 50 µg/mL | 2.01 to 4 µg/mL (≈ 3.51 to 6.99 µM) | – |
| COc1ccc(F)cc1[C@H](Cn1c(=O)n(C(C)(C)C(=O)NC(C)C)c(=O)c2c(C)c(-n3nccn3)sc21)OC(C)=O [Compound I-258] | 5 to 10 nM | > 40 nM | > 50 µg/mL | > 50 µg/mL | 0.25 to 1 µg/mL (≈ 0.426 to 1.7 µM) | 10 µg/mL (≈ 17 µM) | 0.25 to 1 µg/mL (≈ 0.426 to 1.7 µM) | > 50 µg/mL | > 50 µg/mL | > 50 µg/mL | 10 µg/mL (≈ 17 µM) | 10 µg/mL (≈ 17 µM) | 1.01 to 2 µg/mL (≈ 1.72 to 3.41 µM) | – |
| CCNC(=O)C(C)(C)n1c(=O)c2c(C)c(-n3nccn3)sc2n(C[C@@H](OC(C)=O)c2cc(F)ccc2OC)c1=O [Compound I-260] | 0.3 to 1 nM | 10 to 40 nM | > 50 µg/mL | 10 µg/mL (≈ 17.5 µM) | 1.01 to 2 µg/mL (≈ 1.76 to 3.49 µM) | 2 µg/mL (≈ 3.49 µM) | 2.01 to 4 µg/mL (≈ 3.51 to 6.99 µM) | 10 µg/mL (≈ 17.5 µM) | > 50 µg/mL | 2 µg/mL (≈ 3.49 µM) | 0.4 µg/mL (≈ 0.699 µM) | 2 µg/mL (≈ 3.49 µM) | 2.01 to 4 µg/mL (≈ 3.51 to 6.99 µM) | – |
| COc1ccc(F)cc1[C@H](Cn1c(=O)n(C(C)(C)C(=O)NC(C)C)c(=O)c2c(C)c(-n3nccn3)sc21)OC(=O)CO [Compound I-262] | 5 to 10 nM | > 40 nM | > 50 µg/mL | > 50 µg/mL | 0.06 to 0.249 µg/mL (≈ 0.0996 to 0.413 µM) | > 50 µg/mL | 0.25 to 1 µg/mL (≈ 0.415 to 1.66 µM) | > 50 µg/mL | > 50 µg/mL | > 50 µg/mL | 10 µg/mL (≈ 16.6 µM) | 10 µg/mL (≈ 16.6 µM) | 1.01 to 2 µg/mL (≈ 1.68 to 3.32 µM) | – |
| COc1ccc(F)cc1CCn1c(=O)n(C(C)(C)C(=O)NC(C)C)c(=O)c2c(C)c(-n3nccn3)sc21 [Compound I-266] | 1 to 5 nM | 5 to 10 nM | > 50 µg/mL | 10 µg/mL (≈ 18.9 µM) | 0.25 to 1 µg/mL (≈ 0.473 to 1.89 µM) | – | 1.01 to 2 µg/mL (≈ 1.91 to 3.78 µM) | – | > 50 µg/mL | 2 µg/mL (≈ 3.78 µM) | – | – | 1.01 to 2 µg/mL (≈ 1.91 to 3.78 µM) | Concentration at 90% Inhibition Bc ([4]; Botrtyis cinerea): B (compound concentration of 2.0 ppm at 90% inhibition of fungal pathogens); Concentration at 90% Inhibition Cg ([6]; Collectotrichum graminicola): B (compound concentration of 2.0 ppm at 90% inhibition of fungal pathogens); Concentration at 90% Inhibition Fm [9, 32]: B (compound concentration of 2.0 ppm at 90% inhibition of fungal pathogens); Concentration at 90% Inhibition Fv ([10]; growth inhibition at 48 hours vs 2% DMSO control): B (compound concentration of 2.0 ppm at 90% inhibition of fungal pathogens) |
| COc1ccc(F)cc1[C@@H](CCCO)Cn1c(=O)n(C(C)(C)C(=O)NC(C)C)c(=O)c2c(C)c(-n3nccn3)sc21 [Compound I-267] | 1 to 5 nM | > 40 nM | – | – | – | – | – | – | – | – | – | – | – | IC90 [1, 14]: > 50 µg/mL; IC90 [2, 15]: > 50 µg/mL; MIC [3, 16]: 0.06 to 0.249 µg/mL (≈ 0.102 to 0.424 µM); IC90 [4, 17]: > 50 µg/mL; MIC [5, 18]: 0.25 to 1 µg/mL (≈ 0.426 to 1.7 µM); IC90 [6, 19]: > 50 µg/mL; IC90 [7, 20]: > 50 µg/mL; IC90 [8, 21]: > 50 µg/mL; IC90 [9]: 2 µg/mL (≈ 3.41 µM); IC90 [10, 22]: 10 µg/mL (≈ 17 µM); MIC [11, 23]: 0.25 to 1 µg/mL (≈ 0.426 to 1.7 µM) |

From patent US10800791B2, “Triazole ACC inhibitors and uses thereof” (Gilead Apollo, LLC, priority 2015, dated 2020)
